Source: patent publication US20020142016A1, “Stable skin care product containing a retinoid and a retinoid booster system in a dual compartment package” (priority 2000, published 2002)

Columns and labels:
[1] = Retinol stability in the presence of boosters (OD 360 nm); format: physicochemical; details: booster approximately 0.1%, retinol in approx. 50% aqueous ethanol, 60 hours at room temperature in the dark
Method: Retinol (50% in tween 80) was dissolved in approximately 50% aqueous ethanol to provide a solution giving an OD at 360nm of approximately 0.6 when measured in a 200 μl volume in a 96 well plate using a standard 96 well spectrophotometer.
Booster molecules were added at approximately 0.1% concentration and the OD 360 measured as above immediately and after 60 hours at room temperature in the dark. A correction was applied to the OD after 60 hours (divide by 0.85) to account for increased concentration of the retinol due to evaporation of solvent from the plate.

TGase I = assay: Transglutaminase (TGase I ELISA) assay in cultured keratinocytes with retinol; format: cell-based; details: for IC50: Keratinocyte, concentration of booster which, with constant retinol 10^-7 M, inhibits TGase by 50%, read-out: Overall TG (IC 50); for % Inhibition Overall TG (-ROH/RE): added effect of booster+retinol induced TGase inhibition over retinol alone
[2] = test system: retinoic acid oxidation (cytochrome P450 systems); assay: Assay for NADPH dependent retinoic acid oxidation in rat liver microsomes; format: biochemical; details: Sprague Dawley, pH 7.4, probe retinoic acid; for inhibition at 60 min, 100 µM: 10 μM
LRAT = target: T1, LRAT (Bos taurus, UniProt Q9BGL2); assay: Assay for LRAT activity in RPE microsomes; format: biochemical, bovine; details: 100 μm compound
T1 construct: followed by approximately 15 pg of RPE microsomal protein; tissue W. L. Lawson Co., Lincoln, Nebr; host or cells: bovine retinal pigment epithelium microsomes
T1 sequence (Q9BGL2 1-230): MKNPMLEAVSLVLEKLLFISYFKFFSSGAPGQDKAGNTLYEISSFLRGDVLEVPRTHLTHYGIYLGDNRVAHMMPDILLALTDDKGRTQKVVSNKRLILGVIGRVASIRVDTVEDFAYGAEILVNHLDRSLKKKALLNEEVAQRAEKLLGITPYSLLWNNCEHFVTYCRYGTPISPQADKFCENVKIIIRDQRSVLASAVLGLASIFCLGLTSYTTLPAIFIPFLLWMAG

Row | FOLD INCREASE IN RATE OF RETINOL LOSS [1] | IC50 (TGase I) [µM] | Molecule | further results
1 |  | 6.26 | COc1cc(NS(C)(=O)=O)ccc1Nc1c2ccccc2nc2ccccc12 [Amsacrine, reference compound] | 
2 |  |  | c1ccc(-c2ccc(C(c3ccccc3)n3ccnc3)cc2)cc1 (stereo not shown) [Bifonazole] | inhibition at 60 min, 10 µM [2]: 89%; inhibition at 60 min, 100 µM [2]: 100%
3 | 1.4 |  | O=c1ccc2ccccc2o1 [COUMARIN] | 
4 |  | 0.361 | CC1(C)[C@@H](OC(=O)CCC(=O)O)CC[C@]2(C)[C@H]3C(=O)C=C4[C@@H]5C[C@@](C)(C(=O)O)CC[C@]5(C)CC[C@@]4(C)[C@]3(C)CC[C@@H]12 [Carbenoxolone, reference compound] | 
5 | 3.1 |  | CC(C)=CCCC(C)=CC=O [Citral] | 
6 |  | 4.47 | CC(C)(C)C(=O)C(Oc1ccc(Cl)cc1)n1ccnc1 (stereo not shown) [Climbazole] | inhibition at 60 min, 10 µM [2]: 80%; inhibition at 60 min, 100 µM [2]: 92%
7 |  |  | Clc1ccccc1C(c1ccccc1)(c1ccccc1)n1ccnc1 [Clotrimazole] | inhibition at 60 min, 10 µM [2]: 76%
8 |  | 37.5 | CC(/C=C/C=C(\C)C(=O)O)=C\C=C\C=C(C)\C=C\C=C(/C)C(=O)O [Crocetin] | inhibition at 100 µM (LRAT): 15%
9 | 1.4 |  | CN1CCN(C)C1=O [Dimethyl Imidazolidinone] | % Inhibition Overall TG (-ROH/RE) (TGase I): 22%
10 |  |  | Clc1ccc(COC(Cn2ccnc2)c2ccc(Cl)cc2Cl)cc1 (stereo not shown) [Econazole] | inhibition at 60 min, 10 µM [2]: 88%; inhibition at 60 min, 100 µM [2]: 100%
11 |  | 65 | CCCCCCCC/C=C/CCCCCCCC(=O)O [Elaidic Acid] | 
12 |  | 93.5 | CC(C)=CCCC(C)=CCCC(C)=CCO [Farnesol] | inhibition at 100 µM (LRAT): 53%
13 | 1.3 | 7830 | CC(C)=CCC/C(C)=C/CO [Geraniol] | 
14 |  |  | CC(C)=CCC/C(C)=C/CC/C(C)=C/CC/C(C)=C/CO [Geranyl Geraniol] | inhibition at 100 µM (LRAT): 77%
15 | 1.6 |  | CC1(C)[C@@H](O)CC[C@]2(C)[C@H]3C(=O)C=C4[C@@H]5C[C@@](C)(C(=O)O)CC[C@]5(C)CC[C@@]4(C)[C@]3(C)CC[C@@H]12 [Glycyrretinic Acid] | 
16 |  | 130 | O=C(O)CCCCCCCCCCCCCCC(=O)O [Hexadecanedioic Acid] | 
17 |  | 68.8 | CC(C)CCCCCCCCCCCCCCC(=O)O [Isostearic Acid] | 
18 |  | 0.185 | CC(=O)N1CCN(c2ccc(OCC3COC(Cn4ccnc4)(c4ccc(Cl)cc4Cl)O3)cc2)CC1 (stereo not shown) [Ketoconazole] | inhibition at 60 min, 10 µM [2]: 84%; inhibition at 60 min, 100 µM [2]: 84%

Row | FOLD INCREASE IN RATE OF RETINOL LOSS [1] | IC50 (TGase I) [µM] | Molecule | further results
19 | 2.6 |  | CCCCCCCCCCCC(=O)N(C)CC(=O)O [Lauroyl Sarcosine] | 
20 |  |  | CCN(CC)CC(=O)Nc1c(C)cccc1C [Lidocaine, reference compound] | inhibition at 100 µM (LRAT): 0%
21 | 3.0 |  | CCCCC/C=C\C/C=C\CCCCCCCC(=O)N(CCO)CCO [Linoleamide-DEA (or Linoleoyl Diethanolamide)] | % Inhibition Overall TG (-ROH/RE) (TGase I): 59%
22 |  |  | CCCCC/C=C\C/C=C\CCCCCCCC(=O)NCCCN(C)C [Linoleamidopropyl Dimethylamine] | inhibition at 100 µM (LRAT): 75%
23 | 3.4 | 163 | CCCCC/C=C\C/C=C\CCCCCCCC(=O)O [Linoleic Acid] | 
24 |  | 134 | CC/C=C\C/C=C\C/C=C\CCCCCCCC(=O)O [Linolenic Acid] | 
25 |  |  | CCCCC/C=C/C/C=C/CCCCCCCC(=O)NC(C)c1ccccc1 (stereo not shown) [Melinamide, reference compound] | inhibition at 100 µM (LRAT): 43%
26 |  |  | CC(C)(C(=O)c1cccnc1)c1cccnc1 [Metyrapone (2-Methyl-1,2-di-3-Pyridyl-1-Propane] | inhibition at 60 min, 100 µM [2]: 47%
27 |  |  | Clc1ccc(COC(Cn2ccnc2)c2ccc(Cl)cc2Cl)c(Cl)c1 (stereo not shown) [Miconazole] | inhibition at 60 min, 10 µM [2]: 74%; inhibition at 60 min, 100 µM [2]: 86%
28 |  | 17.2 | CCCCCCCCCCCCCC(=O)O [Myristic Acid] | 
29 |  |  | CCCCCCCCCCCCCC(=O)N(C)CC(=O)O [Myristoyl Sarcosine] | inhibition at 100 µM (LRAT): 11%
30 |  | 62.9 | O=c1c(O)c(-c2ccc(O)c(O)c2)oc2cc(O)cc(O)c12 [Quercetin] | inhibition at 60 min, 10 µM [2]: 40%; inhibition at 60 min, 100 µM [2]: 74%
31 |  |  | CC(=O)c1cc2c(cc1C)C(C)(C)C(C)CC2(C)C (stereo not shown) [Tonalid] | inhibition at 100 µM (LRAT): 33%
32 |  | 1.46 | C[C@H]1[C@H](C)CC[C@]2(C(=O)O)CC[C@]3(C)C(=CC[C@@H]4[C@@]5(C)CC[C@H](O)C(C)(C)[C@@H]5CC[C@]43C)[C@H]12 [Urosolic Acid] | 
33 |  | 9700 | COc1cc(C=O)ccc1O [Vanillin] | 
34 | 1.9 |  | COCAMIDE DEA | 
35 | 3.7 |  | DAMASCONE | 

Row | Molecule | FOLD INCREASE IN RATE OF RETINOL LOSS [1] | IC50 (TGase I) [µM] | further results
36 | Oc1cccc2cccnc12 [8 OH QUINOLINE] | 1.5 |  | 
37 | CC(=O)/C=C/C1C(C)=CCCC1(C)C (stereo not drawn) [Alpha-Ionone] | 1.3 |  | 
